{"source": "patent US8524654B2", "about": "“Prolyl endopeptidase inhibitors for reducing or preventing neutrophilic inflammation” (The UAB Research Foundation, priority 2007, dated 2013)", "key": {"[1]": {"tested_on": "PGP production by CF sputum on type I collagen", "test": "Ex vivo collagen assay: PGP generation by pooled CF sputum with inhibitors", "type": "biochemical, human", "experimental": "(§1) Electrospray ionization liquid chromatography-MS/MS. (ESI-LC/MS/MS) for PGP detection PGP and N-α-PGP were measured for in vitro and sputum samples using a MDS Sciex (Applied Biosystems, Foster City, Calif.) API-4000 spectrometer equipped with a Shimadzu HPLC. HPLC was done using a 2.1×150-mm Develosi C30 column (with buffer A: 0.1% formic acid, and buffer B: acetonitrile plus 0.1% formic acid); at 0-0.6 min, 80% buffer A/20% buffer B and at 0.6-5 min, the gradient is up to 0% buffer A/100% buffer B. Background was removed by flushing with 100% isopropanol plus 0.1% formic acid. Positive electrospray mass transitions were at 270-70 and 270-116 for PGP and 312-140 and 312-112 for N-α-PGP.\nEx vivo collagen assay. One hundred microliters of saline-diluted sputum was incubated with extensively dialyzed, intact type I or II collagen (50 μl, 1 mg/ml) for 24 h at 37° C. and 5% CO2. The samples were filtered through a 10-kDa filter, washed with 20 μl of 1 N HCl, and analyzed using ESI-LC-MS/MS for levels of PGP and N-αPGP. Amounts of PGP and N-α-PGP generated by each sputum sample were determined by subtracting basal levels already present in each sample.\nFor the inhibitor experiments, these pooled sputa were treated with noted inhibitor and allowed to incubate for 6 h. At 6 h, dialyzed collagen was added to the sample and sample was further incubated for 18 h. Inhibitor concentrations used were: MMP-8, -9, and -2 at 50 μM, PE at 100 μM, and doxycycline at 1 mM."}, "neutrophil": {"tested_on": "neutrophil", "conditions": "in vitro; cited from earlier work"}, "[2]": {"tested_on": "PGP production in murine airways", "test": "In vivo murine intratracheal protease administration, PGP in bronchoalveolar lavage fluid", "set-up": "species or system BALB/c mice", "conditions": "50 μl, lavage 24 h later, ESI LC-MS/MS, vs PBS control", "experimental": "In vivo PGP production was examined using MMPs or human neutrophil elastase (HNE) with or without PE. Various proteases (50 μl) were administered intratracheally into murine (4- to 6-wk-old BALB/c mice) airways and bronchoalveolar lavage fluid was collected 24 h later. PGP levels were determined using ESI LC-MS/MS. […] Number of mice per group=6.\nas §1\nIn vivo murine administration. Mice underwent intratracheal protease administration as described in FIG. 5 legend. MMPs were preactivated using 1 mM aminophenylmercuric acetate for 2 hours at 37° C. The concentrations of proteases administered were: MMP-8, MMP-9, and MMP-12: 55.6 μg/kg; HNE: 200 μg/kg; and PE: 18.4 mg/kg. […]"}}, "note": "Entries after “also recorded” stand apart in the source; their conditions may differ. Residues, ends and D or L forms follow the SMILES beside them. *: point of attachment. Cbz = O=C(OCc1ccccc1)*"}
{"molecule": "O=CC1CCCN1C(=O)C1CCCN1C(=O)OCc1ccccc1", "note": "(stereo not drawn) [PE inhibitor, Z-prolyl prolinal] (Cbz-Pro-Pro-aldehyde; configuration not given here)", "values": [{"measurement": "inhibition of PGP production compared with CF sputum alone", "setting": "[1]; PE inhibitor at 100 μM, 6 h with pooled CF sputum, then type I collagen, 100 µM", "result": "completely blocked; also recorded: complete blockade"}]}
{"molecule": "proline-glycine-proline [PGP]", "values": [{"measurement": "potency as neutrophil chemoattractant relative to N-α-PGP", "setting": "neutrophil", "result": "four to seven times less potent"}]}
{"molecule": "CCCCCCCC/C=C\\CCCCCCCC(=O)NO", "note": "[MMP-2-specific inhibitor, cis-9-octadecenoyl-N-hydroxylamide]", "values": [{"measurement": "inhibition of PGP production compared with CF sputum alone", "setting": "[1]; MMP-8, -9, -2 inhibitors at 50 μM, 6 h with pooled CF sputum, then type I collagen, 50 µM", "result": "minimal effects; also recorded: Neither MMP-2-nor HNE-specific inhibitors resulted in significant changes"}]}
{"molecule": "CC(C)(C)C(=O)Oc1ccc(S(=O)(=O)Nc2ccccc2C(=O)NCC(=O)O)cc1", "note": "[HNE-specific inhibitor, N-(2-(4-(2,2-dimethylpropionyloxy)phenylsulfonylamino)benzoyl)aminoacetic acid N-(o-(p-pivaloyloxybenzene)sulfonylaminobenzoyl) glycine]", "values": [{"measurement": "inhibition of PGP production compared with CF sputum alone", "setting": "[1]; HNE inhibitor, concentration not given, pooled CF sputum, type I collagen", "result": "minimal effects; also recorded: Neither MMP-2-nor HNE-specific inhibitors resulted in significant changes"}]}
{"molecule": "HNE: Recombinant human neutrophil elastase (protein, UniProt P08246 30-267, looked up) Neutrophil elastase: IVGGRRARPHAWPFMVSLQLRGGHFCGATLIAPNFVMSAAHCVANVNVRAVRVVLGAHNLSRREPTRQVFAVQRIFENGYDPVNLLNDIVILQLNGSATINANVQVAQLPAQGRRLGNGVQCLAMGWGLLGRNRGIASVLQELNVTVVTSLCRRSNVCTLVRGRQAGVCFGDSGSPLVCNGLIHGIASFVRGGCASGLYPDAFAPVAQFVNWIDSIIQRSEDNPCPHPRDPDPASRTH", "values": [{"measurement": "PGP production in bronchoalveolar lavage fluid", "setting": "[2]", "result": "did not generate PGP"}]}
